The results in this text go back to patent publication US10669300B2, “Methods of separating gemcitabine-phosphate diastereoisomers” (NuCana plc, priority 2014, dated 2020).

Data set [1] is described as follows: Solubility in mixtures of polar organic solvents with water. In kind it is physicochemical. The source says: It has recently been discovered that the (S)-epimer 3 of gemcitabine-[phenyl-benzoxy-L-alaninyl)]-phosphate has sufficient solubility in mixtures of a number of polar organic solvents with water to render it suitable for formulation and administration as a therapeutic agent. […] In certain solvent mixtures the difference in solubility between the (S)-epimer and the (R)-epimer is over 100 fold. It is expected therefore that more clinically effective, practical and patient friendly administration methods can be developed using the (S)-epimer than can be developed using the (R)-epimer or using the mixture. It is thus desirable to be able to provide gemcitabine-[phenyl-benzoxy-L-alaninyl)]-(S)-phosphate 3 in substantially diastereoisomerically pure form.

Data set [2] deals with isolated human hepatic cells. Put plainly: Half-life on incubation with isolated human hepatic cells. The class given is in vitro ADME. The source says: The longer half-life associated with (R)-isomer indicates a lower intrinsic clearance and should result in a different pharmacokinetic and pharmacodynamic profile to the (S)-isomer which may offer some benefits.
Data set [3] in a line: Crystallisation optimisation: slurries in acetonitrile and isopropanol, epimers in solution. The class given is physicochemical. The settings on record: 83° C. (heated to reflux, cooled to 20° C.), 200 mg 33:67 (R):(S) mixture.
The nature of data set [4]: Solvent screening: amounts of the two epimers in solution after slurrying NUC-1031 mixture. In kind it is physicochemical. The settings on record: for epimer in solution: 33:67 (R):(S) mixture in 1 mL, stirred overnight. Here is the method:
First a solvent screening was conducted with 17 different solvents (see Table 1). Approximately 25 mg of a diastereomeric mixture (33:67 (R):(S)) of NUC-1031 was suspended in the listed solvents (1 mL) and stirred overnight. In case dissolution occurred more solid was added. The suspensions were sedimented and the relative amounts of the two diastereoisomers in solution was determined by HPLC.

The nature of data set [5]: Crystallisation optimisation: slurries in acetonitrile and isopropanol, epimers in solution. The class given is physicochemical. The following applies: 20° C., 200 mg 33:67 (R):(S) mixture. Here is the method:
The enrichment provided by acetonitrile and isopropanol were evaluated at a range of concentrations and temperatures (see Table 2). Two types of experiments were conducted: simple slurries (20° C.) in different volumes and slurries/recrystallisations at 80° C. For the experiments 200 mg of the diastereomeric mixture (33:67 (R):(S)) was suspended in the solvents and volume indicated below and optionally heated to reflux and cooled to 20° C. The suspensions were stirred overnight and isolated. The relative proportions of the two epimers present in both the solution and in the solid cake were determined by HPLC.

The next data set is described as follows: Solubility in water. In kind it is physicochemical. The following applies: regardless of salt content or pH. An excerpt: It also has implications for the development of efficient manufacturing processes which will allow NUC-1031 to be produced cost effectively.

Take `C[C@H](N[P@@](=O)(OC[C@H]1O[C@@H](n2ccc(N)nc2=O)C(F)(F)C1O)Oc1ccccc1)C(=O)OCc1ccccc1` (single isomer, unassigned; epimer 2) [(R)-epimer]: the “solubility compared with the (S)-epimer” value in data set [1] (mixtures of polar organic solvents with water) was “considerably lower”. Also, the “half-life relative to that of the (S)-epimer” value in data set [2] is reported as “four times”. The epimer in solution in data set [3] (ACN solution, 5 mL) is 1.01 mg/mL; in data set [3] (ACN solution, 10 mL), 1.09 mg/mL; in data set [3] (ACN solution, 15 mL) it was 1.19 mg/mL; in data set [3] (IPA solution, 5 mL) it was 1.42 mg/mL; in data set [3] (IPA solution, 10 mL) it was 3.38 mg/mL; in data set [4] (solvent ACN), 1.1 mg/mL. In addition, the epimer in solution in data set [4] (solvent EtOAc) was 0.7 mg/mL; in data set [4] (solvent EtOH) it was 4.9 mg/mL; in data set [4] (solvent H2O) it was 0.5 mg/mL; in data set [4] (solvent IPA), 1.6 mg/mL; in data set [4] (solvent MEK), 0.9 mg/mL; in data set [4] (solvent MIBK), 0.7 mg/mL. For the same compound, the epimer in solution in data set [4] (solvent MeOH) was 22.8 mg/mL; in data set [4] (solvent MeTHF), 0.6 mg/mL; in data set [4] (solvent TBME) it was 0.1 mg/mL; in data set [4] (solvent THF), 3.0 mg/mL; in data set [4] (solvent acetone), 2.2 mg/mL; in data set [4] (solvent iPrOAc) it was 0.6 mg/mL. Also, the epimer in solution is 1.6 mg/mL in data set [4] (solvent nBuOH); 2.2 mg/mL in data set [4] (solvent nPrOH); 0.4 mg/mL in data set [4] (solvent nheptane); 0.2 mg/mL in data set [4] (solvent toluene); 0.67 mg/mL in data set [5] (ACN solution, 5 mL); 0.59 mg/mL in data set [5] (ACN solution, 10 mL). Also, the epimer in solution in data set [5] (ACN solution, 15 mL) was found to be 0.63 mg/mL; in data set [5] (IPA solution, 5 mL), 0.77 mg/mL; in data set [5] (IPA solution, 10 mL) it was 0.77 mg/mL; in data set [5] (IPA solution, 15 mL), 0.58 mg/mL.
As to `C[C@H](N[P@](=O)(OC[C@H]1O[C@@H](n2ccc(N)nc2=O)C(F)(F)C1O)Oc1ccccc1)C(=O)OCc1ccccc1` (single isomer, unassigned; epimer 2) [(S)-epimer], the “difference in solubility between the (S)-epimer and the (R)-epimer” value in data set [1] (in certain solvent mixtures) is “over 100 fold”. In addition, the epimer in solution in data set [3] (ACN solution, 5 mL) came to 11.03 mg/mL; in data set [3] (ACN solution, 10 mL), 11.00 mg/mL; in data set [3] (ACN solution, 15 mL), 10.67 mg/mL; in data set [3] (IPA solution, 5 mL) it was 18.20 mg/mL; in data set [3] (IPA solution, 10 mL), 12.83 mg/mL; in data set [4] (solvent ACN), 10.0 mg/mL. Further, the epimer in solution in data set [4] (solvent EtOAc) was 1.1 mg/mL; in data set [4] (solvent EtOH) it was 15.7 mg/mL; in data set [4] (solvent H2O), 0.9 mg/mL; in data set [4] (solvent IPA), 13.0 mg/mL; in data set [4] (solvent MEK), 3.2 mg/mL; in data set [4] (solvent MIBK), 1.0 mg/mL. The epimer in solution amounted to 35.1 mg/mL in data set [4] (solvent MeOH); 1.2 mg/mL in data set [4] (solvent MeTHF); 0.1 mg/mL in data set [4] (solvent TBME); 6.6 mg/mL in data set [4] (solvent THF); 7.7 mg/mL in data set [4] (solvent acetone); 0.6 mg/mL in data set [4] (solvent iPrOAc). In addition, the epimer in solution is 14.4 mg/mL in data set [4] (solvent nBuOH); 10.8 mg/mL in data set [4] (solvent nPrOH); 0.4 mg/mL in data set [4] (solvent nheptane); 0.7 mg/mL in data set [4] (solvent toluene); 9.04 mg/mL in data set [5] (ACN solution, 5 mL); 8.85 mg/mL in data set [5] (ACN solution, 10 mL). Also, the epimer in solution was 9.74 mg/mL in data set [5] (ACN solution, 15 mL); 17.75 mg/mL in data set [5] (IPA solution, 5 mL); 12.98 mg/mL in data set [5] (IPA solution, 10 mL); 7.16 mg/mL in data set [5] (IPA solution, 15 mL). Moreover, the “solubility compared with the (R)-epimer” value in data set [4] (in all solvents tested) is “higher solubility”.
On to `C[C@H](NP(=O)(OC[C@H]1O[C@@H](n2ccc(N)nc2=O)C(F)(F)C1O)Oc1ccccc1)C(=O)OCc1ccccc1` (stereo partly shown) [NUC-1031], for which the solubility in water result in the data set “Solubility in water” is “essentially insoluble in water”.
